In ChEMBL document CHEMBL3885861, “Open TG-GATES”:

Organism: Rattus norvegicus
Experiment: Open TG-GATES - Regimen: Daily Repeat
Assay type: toxicity, organism-based, Sprague-Dawley
Set-up: regimen Daily Repeat, gender Male, age 6 weeks
Details: in vivo, po, route gavage; for APTT / Bas / Eos / Fbg / Hb / Ht / Lym / MCH / MCHC / MCV / Mono / Neu / PT / Plat / RBC / Ret / WBC: tissue Blood; for KIDNEY_L / KIDNEY_R / KIDNEY_TOTAL: tissue Kidney; for LIVER: tissue Liver; for A/G / ALP / ALT / AST / BUN / CRE / Ca / Cl / DBIL / GLC / IP / K / LDH / Na / PL / RALB / TBIL / TC / TG / TP / gamma-GTP: tissue Plasma
[1] = 1 mg/kg, […], dose level Middle, time 14 day
[2] = 1 mg/kg, […], dose level Middle, time 28 day
[3] = 1 mg/kg, […], dose level Middle, time 7 day
[4] = 3 mg/kg, 72 h, dose level High, time 3 day
[5] = 3 mg/kg, […], dose level High, time 7 day
[6] = 3 mg/kg, […], dose level High, time 14 day

For `CN1C(C(=O)Nc2ccccn2)=C(O)c2sc(Cl)cc2S1(=O)=O` [LORNOXICAM], the TERMINAL_BW [1] was 307.1 g, the TERMINAL_BW [2] was 392.3 g and the APTT [3] was 18.4 s. For the same compound, the Bas [3] was 0.8%, the Eos [3] was 1% and the Fbg [3] was 239.8 mg/dL. It also gave a Hb [3] of 12.9 g/dL, a Ht [3] of 38.3% and a Lym [3] of 71.6%. It also gave an MCH [3] of 20.9 pg, an MCHC [3] of 33.6% and an MCV [3] of 62.1 fL. The Mono [3] was 2.8%, the Neu [3] was 23.6% and the PT [3] was 11.5 s. It also gave a Plat [3] of 139.1 x10_4/uL, an RBC [3] of 617 x10_4/ul and a Ret [3] of 5.7%. For the same compound, the WBC [3] was 135.6 x10_2/uL, the APTT [1] was 20.3 s and the Bas [1] was 0.8%. It also gave an Eos [1] of 0.8%, a Fbg [1] of 291.6 mg/dL and a Hb [1] of 12.9 g/dL. For the same compound, the Ht [1] was 38.8%, the Lym [1] was 62.2% and the MCH [1] was 19.8 pg. It also gave an MCHC [1] of 33%, an MCV [1] of 59.9 fL and a Mono [1] of 3.8%. It also gave a Neu [1] of 31.8%, a PT [1] of 11.4 s and a Plat [1] of 151.7 x10_4/uL. The RBC [1] was 648 x10_4/ul, the Ret [1] was 5.7% and the WBC [1] was 137.4 x10_2/uL. It also gave an APTT [2] of 18.9 s, a Bas [2] of 0.8% and an Eos [2] of 1%. For the same compound, the Fbg [2] was 247.2 mg/dL, the Hb [2] was 15.2 g/dL and the Ht [2] was 44.2%. The Lym [2] was 71%, the MCH [2] was 19.6 pg and the MCHC [2] was 34.2%. The MCV [2] was 57.1 fL, the Mono [2] was 2.5% and the Neu [2] was 24%. For the same compound, the PT [2] was 11.7 s, the Plat [2] was 115.1 x10_4/uL and the RBC [2] was 775.8 x10_4/ul. For the same compound, the Ret [2] was 2.8%, the WBC [2] was 161.4 x10_2/uL and the KIDNEY_L [3] was 1.3 g. For the same compound, the KIDNEY_R [3] was 1.3 g, the KIDNEY_TOTAL [3] was 2.6 g and the KIDNEY_L [1] was 1.5 g. For the same compound, the KIDNEY_R [1] was 1.4 g, the KIDNEY_TOTAL [1] was 2.9 g and the KIDNEY_L [2] was 1.5 g. It also gave a KIDNEY_R [2] of 1.5 g, a KIDNEY_TOTAL [2] of 3.1 g and an LIVER [3] of 12.7 g. The LIVER [1] was 12.3 g, the LIVER [2] was 15.1 g and the A/G [3] was 1.4. For the same compound, the ALP [3] was 831.8 IU/L, the ALT [3] was 41.6 IU/L and the AST [3] was 75.6 IU/L. For the same compound, the BUN [3] was 13.4 mg/dL, the CRE [3] was 0.4 mg/dL and the Ca [3] was 10.6 mg/dL. It also gave a Cl [3] of 104 meq/L, a DBIL [3] of 0.086 mg/dL and a GLC [3] of 194 mg/dL. The IP [3] was 7.4 mg/dL, the K [3] was 4.1 meq/L and the LDH [3] was 210.2 IU/L. For the same compound, the Na [3] was 141.2 meq/L, the PL [3] was 136 mg/dL and the RALB [3] was 3.2 g/dL. The TBIL [3] was 0.1 mg/dL, the TC [3] was 70.6 mg/dL and the TG [3] was 93 mg/dL. It also gave a TP [3] of 5.5 g/dL, a gamma-GTP [3] of 1.2 IU/L and an A/G [1] of 1.2. For the same compound, the ALP [1] was 815.8 IU/L, the ALT [1] was 31.6 IU/L and the AST [1] was 79 IU/L. It also gave a BUN [1] of 21.8 mg/dL, a CRE [1] of 0.5 mg/dL and a Ca [1] of 10.3 mg/dL. The Cl [1] was 104.6 meq/L, the DBIL [1] was 0.086 mg/dL and the GLC [1] was 189.6 mg/dL. It also gave an IP [1] of 7.1 mg/dL, a K [1] of 4 meq/L and an LDH [1] of 225 IU/L. For the same compound, the Na [1] was 141.8 meq/L, the PL [1] was 131.2 mg/dL and the RALB [1] was 2.9 g/dL. For the same compound, the TBIL [1] was 0.1 mg/dL, the TC [1] was 65.6 mg/dL and the TG [1] was 106.2 mg/dL. For the same compound, the TP [1] was 5.3 g/dL, the gamma-GTP [1] was 2 IU/L and the A/G [2] was 1.3. The ALP [2] was 589.2 IU/L, the ALT [2] was 31.8 IU/L and the AST [2] was 76.2 IU/L. It also gave a BUN [2] of 19 mg/dL, a CRE [2] of 0.5 mg/dL and a Ca [2] of 10.2 mg/dL. The Cl [2] was 104 meq/L, the DBIL [2] was 0.0925 mg/dL and the GLC [2] was 206.5 mg/dL. It also gave an IP [2] of 6.3 mg/dL, a K [2] of 3.8 meq/L and an LDH [2] of 194.2 IU/L. For the same compound, the Na [2] was 141.8 meq/L, the PL [2] was 142.8 mg/dL and the RALB [2] was 3.3 g/dL. The TBIL [2] was 0.2 mg/dL, the TC [2] was 69.8 mg/dL and the TG [2] was 150.2 mg/dL. It also gave a TP [2] of 5.8 g/dL, a gamma-GTP [2] of 1.5 IU/L and a TERMINAL_BW [4] of 235 g. It also gave an APTT [4] of 18.3 s, a Bas [4] of 0.8% and an Eos [4] of 0.6%. It also gave a Fbg [4] of 354.8 mg/dL, a Hb [4] of 11.6 g/dL and a Ht [4] of 35.4%. For the same compound, the Lym [4] was 56.8%, the MCH [4] was 20.5 pg and the MCHC [4] was 32.9%. It also gave an MCV [4] of 62.4 fL, a Mono [4] of 6% and a Neu [4] of 29.2%. For the same compound, the PT [4] was 11.4 s, the Plat [4] was 121.4 x10_4/uL and the RBC [4] was 568.2 x10_4/ul. The Ret [4] was 6.5%, the WBC [4] was 164.3 x10_2/uL and the KIDNEY_L [4] was 1.2 g. For the same compound, the KIDNEY_R [4] was 1.1 g, the KIDNEY_TOTAL [4] was 2.3 g and the LIVER [4] was 12 g. It also gave an A/G [4] of 0.9, an ALP [4] of 648.6 IU/L and an ALT [4] of 30 IU/L. For the same compound, the AST [4] was 57.4 IU/L, the BUN [4] was 12.4 mg/dL and the CRE [4] was 0.4 mg/dL. It also gave a Ca [4] of 10.5 mg/dL, a Cl [4] of 103.8 meq/L and a DBIL [4] of 0.07 mg/dL. It also gave a GLC [4] of 194 mg/dL, an IP [4] of 8 mg/dL and a K [4] of 4.4 meq/L. The LDH [4] was 163 IU/L, the Na [4] was 140.8 meq/L and the PL [4] was 142.8 mg/dL. It also gave an RALB [4] of 2.4 g/dL, a TBIL [4] of 0.1 mg/dL and a TC [4] of 70.8 mg/dL. The TG [4] was 131.6 mg/dL, the TP [4] was 4.9 g/dL and the gamma-GTP [4] was 1.4 IU/L. It also gave a TERMINAL_BW [5] of 246.6 g, an APTT [5] of 18 s and a Bas [5] of 1%. For the same compound, the Eos [5] was 1%, the Fbg [5] was 362 mg/dL and the Hb [5] was 10.9 g/dL. It also gave a Ht [5] of 32.8%, a Lym [5] of 56% and an MCH [5] of 20.2 pg. It also gave an MCHC [5] of 33.2%, an MCV [5] of 61 fL and a Mono [5] of 4.7%. The Neu [5] was 36.3%, the PT [5] was 11.1 s and the Plat [5] was 232.1 x10_4/uL. The RBC [5] was 537.7 x10_4/ul, the Ret [5] was 6% and the WBC [5] was 243.6 x10_2/uL. For the same compound, the KIDNEY_L [5] was 1.2 g, the KIDNEY_R [5] was 1.2 g and the KIDNEY_TOTAL [5] was 2.3 g. The LIVER [5] was 11.3 g, the A/G [5] was 0.8 and the ALP [5] was 606 IU/L. For the same compound, the ALT [5] was 23.7 IU/L, the AST [5] was 58.3 IU/L and the BUN [5] was 9 mg/dL. It also gave a CRE [5] of 0.4 mg/dL, a Ca [5] of 10.3 mg/dL and a Cl [5] of 105.3 meq/L. The DBIL [5] was 0.0567 mg/dL, the GLC [5] was 176 mg/dL and the IP [5] was 7.7 mg/dL. It also gave a K [5] of 4.3 meq/L, an LDH [5] of 206.7 IU/L and a Na [5] of 141.3 meq/L. The PL [5] was 147 mg/dL, the RALB [5] was 2.4 g/dL and the TBIL [5] was 0.1 mg/dL. It also gave a TC [5] of 73.3 mg/dL, a TG [5] of 114.7 mg/dL and a TP [5] of 5.3 g/dL. For the same compound, the gamma-GTP [5] was 2 IU/L, the GLC [6] was 178 mg/dL and the gamma-GTP [6] was 1 IU/L.
